In US6660496B1 (priority 1993, dated 2003):
“Also recorded” adds a separate entry of the source.

Key:
kappa3 receptors = details: cited from earlier work
kappa3 opioid receptor = test: Effect of antisense treatment on kappa3 analgesic activity (tailflick assay); assay type: in vivo; details: mice, 5 μg oligodeoxynucleotide intracerebroventricular on days 1, 3 and 5, quantal tailflick 15 min after drug; for Effect on analgesic response to NalBzoH: NalBzoH 15 μg on day 6; for Effect on analgesic response to morphine: morphine 1 μg on day 6

Molecule: Oc1ccc2c3c1O[C@H]1c4[nH]c5c(c4C[C@@]4(O)[C@@H](C2)N(CC2CC2)CC[C@]314)C[C@@]1(O)[C@H]2Cc3ccc(O)c4c3[C@@]1(CCN2CC1CC1)[C@H]5O4 [nor-binaltorphimine]
- Binding to kappa3 receptors (kappa3 receptors): do not bind U50,488H or nor-binaltorphimine very well

Molecule: antisense: anti-sense to the kappa3 clone (5′-GGGCTGTGCAGAAGCGCAGA-3′)(SEQ ID NO:3) (DNA, backbone and methylation of C not given here)
- Effect on analgesic response to NalBzoH (kappa3 opioid receptor): markedly lowered; also recorded: markedly reduced
- Effect on analgesic response to morphine (kappa3 opioid receptor): without interfering
- Effect on analgesic response to morphine (kappa3 opioid receptor; listed as anti-sense): unaffected

Molecule: mismatched antisense: mismatched antisense in which two base pairs had been switched (5′-GGGTCGTGCAGAGACGCAGA-3′) (SEQ ID NO:5) (DNA, backbone and methylation of C not given here)
- Effect on analgesic response to NalBzoH (kappa3 opioid receptor): unaffected
- Effect on analgesic response to NalBzoH (kappa3 opioid receptor; listed as mismatched antisense probe): lack of activity

Molecule: sense strand: complementary sense strand to the antisense oligodeoxynucleotide (5′-CCCGACACGTCTTCGC-GTCT-3′) (SEQ ID NO:4) (sense CCCGACACGTCTTCGCGTCT; DNA, backbone and methylation of C not given here)
- Effect on analgesic response to NalBzoH (kappa3 opioid receptor): lack of activity
- Effect on analgesic response to NalBzoH (kappa3 opioid receptor; listed as sense): unaffected
